# Measurements published in BindingDB's records for patent US10889592 (VALO EARLY DISCOVERY, INC., 2021).
# Assays:
# [1] = molecular target: T1, Ubiquitin carboxyl-terminal hydrolase 28 (Homo sapiens, UniProt Q96RU2); test: Biochemical Assay
# T1 sequence (Q96RU2 whole entry): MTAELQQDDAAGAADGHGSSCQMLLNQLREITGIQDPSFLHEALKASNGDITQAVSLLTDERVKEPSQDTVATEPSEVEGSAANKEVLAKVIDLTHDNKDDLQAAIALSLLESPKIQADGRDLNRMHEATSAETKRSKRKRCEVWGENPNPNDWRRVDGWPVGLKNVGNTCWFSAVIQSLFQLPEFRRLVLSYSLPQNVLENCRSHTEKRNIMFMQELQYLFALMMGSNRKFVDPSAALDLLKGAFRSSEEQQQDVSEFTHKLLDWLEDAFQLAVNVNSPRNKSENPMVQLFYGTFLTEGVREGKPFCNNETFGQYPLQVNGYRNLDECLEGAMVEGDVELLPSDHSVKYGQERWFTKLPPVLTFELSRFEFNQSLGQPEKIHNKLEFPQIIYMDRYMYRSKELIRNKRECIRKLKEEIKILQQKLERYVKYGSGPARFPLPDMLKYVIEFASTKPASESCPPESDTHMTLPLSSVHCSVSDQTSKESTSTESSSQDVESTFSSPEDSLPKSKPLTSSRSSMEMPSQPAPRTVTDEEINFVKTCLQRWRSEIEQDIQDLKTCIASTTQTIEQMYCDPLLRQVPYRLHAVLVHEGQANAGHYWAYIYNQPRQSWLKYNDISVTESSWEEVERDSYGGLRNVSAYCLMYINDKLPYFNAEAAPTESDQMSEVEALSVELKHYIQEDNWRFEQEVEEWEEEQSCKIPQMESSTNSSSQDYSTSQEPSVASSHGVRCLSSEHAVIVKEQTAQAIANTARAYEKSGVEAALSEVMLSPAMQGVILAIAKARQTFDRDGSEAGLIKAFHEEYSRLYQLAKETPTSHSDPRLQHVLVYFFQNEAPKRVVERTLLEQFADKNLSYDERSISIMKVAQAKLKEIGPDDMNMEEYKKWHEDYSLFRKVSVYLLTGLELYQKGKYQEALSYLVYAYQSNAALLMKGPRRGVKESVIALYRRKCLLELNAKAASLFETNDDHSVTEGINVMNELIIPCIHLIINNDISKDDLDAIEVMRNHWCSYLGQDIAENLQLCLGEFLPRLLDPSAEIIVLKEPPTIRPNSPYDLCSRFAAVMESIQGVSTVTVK
# Protocol: USP28: Each assay was performed in a final volume of 20 μL in assay buffer containing 20 mM Tris-HCl (pH 8.0, (1M Tris-HCl, pH 8.0 solution; Corning 46-031-CM)), 2 mM CaCl2) (1M Calcium Chloride solution; Sigma #21114) 2 mM BME (2-Mercaptoethanol; Sigma 63689-25ML-F), 0.01% Prionex (0.22 μM filtered, Sigma # G-0411), and 0.01% Triton X-100. Stock compound solutions were stored at −20° C. as 10 mM in DMSO. Up to 1 month prior to the assay, 2 mM test compounds were pre-dispensed into assay plates (Black, low volume; Corning #3820) and frozen at −20° C. Prestamped assay plates were allowed to come to room temperature on the day of the assay. For the screen, 100 nL of 2 mM was pre-dispensed for a final screening concentration of 10 μM (DMSO(fc)=0.5%). […] Plates were incubated stacked for 90 minutes at room temperature before fluorescence was read on the Envision (Excitation at 485 nm and Emission at 535 nm; Perkin Elmer) or on the PheraSTAR (Excitation at 485 nm and Emission at 535 nm; BMG Labtech).
# [2] = molecular target: T2, Ubiquitin carboxyl-terminal hydrolase 25 (Homo sapiens, UniProt Q9UHP3); test: Biochemical Assay
# T2 sequence (Q9UHP3 whole entry): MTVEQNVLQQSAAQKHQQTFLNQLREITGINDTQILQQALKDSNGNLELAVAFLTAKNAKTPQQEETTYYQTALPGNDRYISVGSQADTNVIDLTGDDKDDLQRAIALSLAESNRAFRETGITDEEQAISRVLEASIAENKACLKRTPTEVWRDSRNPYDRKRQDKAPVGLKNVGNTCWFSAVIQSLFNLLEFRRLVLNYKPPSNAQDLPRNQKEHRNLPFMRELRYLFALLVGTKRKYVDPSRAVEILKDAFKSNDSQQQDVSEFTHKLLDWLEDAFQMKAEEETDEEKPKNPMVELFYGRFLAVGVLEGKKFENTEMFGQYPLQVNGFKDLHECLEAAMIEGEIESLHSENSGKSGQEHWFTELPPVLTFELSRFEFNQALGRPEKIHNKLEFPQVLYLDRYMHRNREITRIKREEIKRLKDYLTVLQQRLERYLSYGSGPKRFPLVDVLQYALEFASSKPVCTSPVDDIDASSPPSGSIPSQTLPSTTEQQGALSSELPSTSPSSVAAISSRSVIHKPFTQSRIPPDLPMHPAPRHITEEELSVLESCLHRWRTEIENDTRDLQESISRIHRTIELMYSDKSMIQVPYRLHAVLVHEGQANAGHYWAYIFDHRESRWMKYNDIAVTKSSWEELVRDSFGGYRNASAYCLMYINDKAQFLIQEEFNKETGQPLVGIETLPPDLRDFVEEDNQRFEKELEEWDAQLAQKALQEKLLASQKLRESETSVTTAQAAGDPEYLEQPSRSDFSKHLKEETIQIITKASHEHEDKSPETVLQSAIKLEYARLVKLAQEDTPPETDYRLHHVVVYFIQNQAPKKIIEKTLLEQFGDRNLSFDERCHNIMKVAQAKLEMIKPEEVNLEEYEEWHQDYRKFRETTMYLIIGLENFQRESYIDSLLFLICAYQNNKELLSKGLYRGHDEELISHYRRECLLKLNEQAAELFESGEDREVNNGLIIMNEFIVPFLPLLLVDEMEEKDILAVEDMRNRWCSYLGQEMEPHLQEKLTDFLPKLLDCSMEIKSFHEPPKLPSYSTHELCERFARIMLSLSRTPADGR
# Protocol: USP25: The assay was performed in a final volume of 9 μL in assay buffer containing 20 mM Tris-HCl (pH 8.0, (1M Tris-HCl, pH 8.0 solution; Corning 46-031-CM)), 3 mM BME (2-Mercaptoethanol; Sigma 63689-25ML-F), 0.03% BGG (0.22 μM filtered. Sigma, G7516-25G), and 0.01% Triton X-100 (Sigma, T9284-10L). Nanoliter quantities of 10-point, 3-fold serial dilution in DMSO was pre-dispensed into 1536 assay plates (Corning, #3724BC) for a final test concentration of 25 μM to 1.3 nM, top to lowest dose, respectively. Enzyme USP25, construct USP25-His6, (Boston Biochem E-546). Concentration and incubation times were optimized for the maximal signal-to-background while maintaining initial velocity conditions at a fixed substrate concentration. The final concentration of the enzyme in the assay was 75 pM. Final substrate (Ub-Rh110 Ubiquitin-Rhodamine 110, R&D Systems # U-555) concentration was 25 nM with [Ub-Rh110]<<Km. 3 μL of 2× enzyme was added to assay plates (pre-stamped with compound) preincubated with […] for 30 minutes and then 3 μL of 2×Ub-Rh110 was added to assay plates. […] Fluorescence was read on the Envision (Excitation at 485 nm and Emission at 535 nm; Perkin Elmer) or on the PheraSTAR (Excitation at 485 nm and Emission at 535 nm; BMG Labtech).
SMILES,IC50 [1],IC50 [2]
"Cc1cnc2c(N)c(C(=O)NCCc3c(F)cc(N4C5CCC4CNC5)cc3F)sc2n1 [US10889592, Compound I-11]",in the range around 1100 nM,in the range around 1100 nM
"Cc1cnc2c(N)c(C(=O)NCCc3ccc(N4C5CCC4CNC5)cc3F)sc2n1 [US10889592, Compound I-10]",< 200 nM,in the range around 1100 nM
